Measured values from US20020137929A1, “1 - (3-heterocyclylphenyl) isothiourea, -isourea, -guanidine and -amidine herbicidal agents” (Intellectual Property Department, BASF Aktiengesellschaft, priority 1998, published 2002).

Key:
[1] = system: CASOB (Sicklepod); assay: Postemergence herbicidal evaluation; format: in vivo, Cassia obtusifolia; conditions: postemergence
Method in brief: (§1)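 Visual 0–9 rating versus control (stand, vigor, malformation, size, chlorosis, overall appearance), taken four to five weeks post-spray. Two-week-old seedlings received roughly 0.0156–0.500 kg/ha active in acetone/water (50/50) with 0.5% TWEEN 20 via nozzle at 40 psi.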

[2] = system: ORYSAT (Rice, Tebonnet); assay: Preemergence herbicidal evaluation; format: in vivo, Oryza sativa, (L.) Tebonnet; conditions: rated 4-5 weeks after treatment; for ORYSAT rating: preemergence, 0-9 scale
Method in brief: (§2)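 Scores (0–9) reflect visual comparison with control plants for stand, vigor, malformation, size and chlorosis. Compound was applied to the soil after sowing, before emergence, as an aqueous acetone spray (about 0.0156–0.500 kg/ha), and cups were kept in a greenhouse for 4–5 weeks.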

[3] = system: MOOVA (Monochoria); assay: Postemergence weed control under flooded paddy conditions; format: in vivo, Monochoria vaginalis; conditions: postemergence weeds
Method in brief: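 Weeds 3 to 5 cm tall and rice seedlings at the 1.5 to 2.5 leaf stage were flooded, with water held 1.5 to 3 cm above the soil. Compounds in 50/50 v/v aqueous/acetone went into the flood water at about 0.0313 to 0.500 kg/ha. Visual 0-9 ratings versus control were made 3 to 4 weeks later.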

[4] = system: CHEAL (Lambsquarters, Common); assay: Postemergence herbicidal evaluation; format: in vivo, Chenopodium album; conditions: postemergence
Method in brief: as §1

[5] = system: CHEAL (Lambsquarters, Common); assay: Preemergence herbicidal evaluation; format: in vivo, Chenopodium album; conditions: rated 4-5 weeks after treatment; for CHEAL rating: preemergence, 0-9 scale
Method in brief: as §2

[6] = system: TRZAWR (Wheat, Winter, cv Riband); assay: Postemergence herbicidal evaluation; format: in vivo, Triticum aestivum; conditions: postemergence
Method in brief: as §1

[7] = Rate 0.0313 kg/ha, rated 3 to 4 weeks after treatment
[8] = Rate 0.0625 kg/ha, rated 3 to 4 weeks after treatment
[9] = Rate 0.1250 kg/ha, rated 3 to 4 weeks after treatment
[10] = Rate 0.2500 kg/ha, rated 3 to 4 weeks after treatment

Row | SMILES | CASOB herbicidal rating ([1]; rate 0.0156 kg/ha) | CASOB herbicidal rating ([1]; rate 0.0313 kg/ha) | CASOB herbicidal rating ([1]; rate 0.0625 kg/ha) | CASOB herbicidal rating ([1]; rate 0.1250 kg/ha) | CHEAL herbicidal rating ([4]; rate 0.0156 kg/ha) | CHEAL herbicidal rating ([4]; rate 0.0313 kg/ha) | CHEAL herbicidal rating ([4]; rate 0.0625 kg/ha) | CHEAL herbicidal rating ([4]; rate 0.1250 kg/ha) | TRZAWR herbicidal rating ([6]; rate 0.0156 kg/ha) | TRZAWR herbicidal rating ([6]; rate 0.0313 kg/ha) | TRZAWR herbicidal rating ([6]; rate 0.0625 kg/ha) | TRZAWR herbicidal rating ([6]; rate 0.1250 kg/ha) | ORYSAT rating ([2]; 0.1250 kg/ha) | ORYSAT rating ([2]; 0.2500 kg/ha) | ORYSAT rating ([2]; 0.5000 kg/ha) | Herbicidal rating MOOVA [3, 7] | Herbicidal rating MOOVA [3, 8] | Herbicidal rating MOOVA [3, 9] | Herbicidal rating MOOVA [3, 10] | CHEAL rating ([5]; 0.1250 kg/ha) | other results
1 | CCOC(=O)CN1C(=O)C(C)SC1=Nc1cc(-n2c(=O)cc(C(F)(F)F)n(C)c2=O)c(F)cc1Cl (stereo not drawn) [Compound 12] | 0.0 | 3.0 | 7.0 | 9.0 | 9.0 | 9.0 | 9.0 | 9.0 | 5.5 | 7.0 | 7.5 | 7.5 | – | – | – | – | – | – | – | – | ORYSAT preemergence herbicidal rating ([2]; rate 0.0156 kg/ha): 0.0; ORYSAT preemergence herbicidal rating ([2]; rate 0.0313 kg/ha): 1.0; ORYSAT preemergence herbicidal rating ([2]; rate 0.0625 kg/ha): 4.0; ORYSAT preemergence herbicidal rating ([2]; rate 0.1250 kg/ha): 7.0; ORYSAT preemergence herbicidal rating ([2]; rate 0.2500 kg/ha): 7.0; Herbicidal rating MOOVA ([3]; rate 0.0313 kg/ha, 3-4 weeks after treatment): 9.0; Herbicidal rating MOOVA ([3]; rate 0.0625 kg/ha, 3-4 weeks after treatment): 9.0; Herbicidal rating MOOVA ([3]; rate 0.1250 kg/ha, 3-4 weeks after treatment): 9.0; Herbicidal rating MOOVA ([3]; rate 0.2500 kg/ha, 3-4 weeks after treatment): 9.0; CHEAL preemergence herbicidal rating ([5]; rate 0.0156 kg/ha): 9.0; CHEAL preemergence herbicidal rating ([5]; rate 0.0313 kg/ha): 9.0; CHEAL preemergence herbicidal rating ([5]; rate 0.0625 kg/ha): 9.0; CHEAL preemergence herbicidal rating ([5]; rate 0.1250 kg/ha): 9.0; CHEAL preemergence herbicidal rating ([5]; rate 0.2500 kg/ha): 9.0
2 | CCOC(=O)CN1C(=O)C(CC(=O)NS(=O)(=O)CC)SC1=Nc1cc(-n2c(=O)cc(C(F)(F)F)n(C)c2=O)c(F)cc1Cl (stereo not drawn) [Compound 103, Ethyl 2-{{2-chloro-5-[3,6-dihydro-3-methyl-2,6-dioxo-4-(trifluoromethyl)-1(2H)-pyrimidinyl]-4-fluorophenyl}imino}-5-{[(ethylsulfonyl)carbamoyl]-methyl}-4-oxo-3-thiazolidineacetate] | – | – | – | – | – | – | – | – | – | – | – | – | 0.0 | 0.0 | 2.0 | 5.0 | 7.0 | 9.0 | 9.0 | 9.0 | herbicidal rating CASOB ([1]; rate 0.0156 kg/ha): 0.0; herbicidal rating CASOB ([1]; rate 0.0313 kg/ha): 3.0; herbicidal rating CASOB ([1]; rate 0.0625 kg/ha): 3.0; herbicidal rating CASOB ([1]; rate 0.1250 kg/ha): 3.0; ORYSAT rating ([2]; 0.0313 kg/ha): 0.0; ORYSAT rating ([2]; 0.0625 kg/ha): 0.0; herbicidal rating CHEAL ([4]; rate 0.0156 kg/ha): 3.0; herbicidal rating CHEAL ([4]; rate 0.0313 kg/ha): 3.0; herbicidal rating CHEAL ([4]; rate 0.0625 kg/ha): 5.0; herbicidal rating CHEAL ([4]; rate 0.1250 kg/ha): 9.0; CHEAL rating ([5]; 0.0313 kg/ha): 0.0; CHEAL rating ([5]; 0.0625 kg/ha): 4.0; CHEAL rating ([5]; 0.2500 kg/ha): 9.0; CHEAL rating ([5]; 0.5000 kg/ha): 9.0; herbicidal rating TRZAWR ([6]; rate 0.0156 kg/ha): 3.5; herbicidal rating TRZAWR ([6]; rate 0.0313 kg/ha): 6.0; herbicidal rating TRZAWR ([6]; rate 0.0625 kg/ha): 7.5; herbicidal rating TRZAWR ([6]; rate 0.1250 kg/ha): 7.5
3 | CCOC(=O)CN1C(=O)C(CC(=O)OC(C)C(=O)OCC)S/C1=N/c1cc(-n2c(=O)cc(C(F)(F)F)n(C)c2=O)c(F)cc1Cl (stereo not drawn) [Compound 87] | 0.0 | 0.0 | 0.0 | 2.0 | 0.0 | 0.0 | 3.0 | 4.0 | 2.5 | 3.0 | 4.5 | 4.5 | 0.0 | 0.0 | 0.0 | 9.0 | 9.0 | 9.0 | 9.0 | 4.0 | CASOB herbicidal rating ([1]; rate 0.2500 kg/ha): 9.0; Herbicidal rating MOOVA ([3]; Rate 0.5000 kg/ha, rated 3 to 4 weeks after treatment): 9.0; CHEAL herbicidal rating ([4]; rate 0.2500 kg/ha): 9.0; CHEAL rating ([5]; 0.2500 kg/ha): 9.0; CHEAL rating ([5]; 0.5000 kg/ha): 9.0; TRZAWR herbicidal rating ([6]; rate 0.2500 kg/ha): 6.0
